Source: PubChem BioAssay AID1963852 (Molecular Pharmacology Branch, DTP, NCI, 2024)
pIC50: −log10 of the molar value.

Test system: 282377-053-R-J1-PDC complex spheroid viability
Assay: Anticancer human tumor 282377-053-R-J1-PDC patient-derived colon adenocarcinoma cell line growth inhibition [POLQ]
Details: for pIC50: curve of first compound; for viability, T/C: stronger effect = lower value
Procedure, shortened: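 Three-cell-type spheroids modelling solid tumor plus stroma served as the readout system; POL inhibitors were tested individually and in combination, concentration ranges set by clinical Cmax where known.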

[1] = second compound 0.0316 µM, first compound 0.0316 µM
[2] = second compound 0.0316 µM, first compound 0.1 µM
[3] = second compound 0.0316 µM, first compound 0.316 µM
[4] = second compound 0.0316 µM, first compound 1 µM
[5] = second compound 0.0316 µM, first compound 3.16 µM
[6] = second compound 0.0316 µM, first compound 10 µM
[7] = second compound 0.1 µM, first compound 0.0316 µM
[8] = second compound 0.1 µM, first compound 0.1 µM
[9] = second compound 0.1 µM, first compound 0.316 µM
[10] = second compound 0.1 µM, first compound 1 µM
[11] = second compound 0.1 µM, first compound 3.16 µM
[12] = second compound 0.1 µM, first compound 10 µM
[13] = second compound 0.316 µM, first compound 0.0316 µM
[14] = second compound 0.316 µM, first compound 0.1 µM
[15] = second compound 0.316 µM, first compound 0.316 µM
[16] = second compound 0.316 µM, first compound 1 µM
[17] = second compound 0.316 µM, first compound 3.16 µM
[18] = second compound 0.316 µM, first compound 10 µM
[19] = second compound 1 µM, first compound 0.0316 µM
[20] = second compound 1 µM, first compound 0.1 µM
[21] = second compound 1 µM, first compound 0.316 µM
[22] = second compound 1 µM, first compound 1 µM
[23] = second compound 1 µM, first compound 3.16 µM
[24] = second compound 1 µM, first compound 10 µM
[25] = second compound 3.16 µM, first compound 0.0316 µM
[26] = second compound 3.16 µM, first compound 0.1 µM
[27] = second compound 3.16 µM, first compound 0.316 µM
[28] = second compound 3.16 µM, first compound 1 µM
[29] = second compound 3.16 µM, first compound 3.16 µM
[30] = second compound 3.16 µM, first compound 10 µM
[31] = second compound 10 µM, first compound 0.0316 µM
[32] = second compound 10 µM, first compound 0.1 µM
[33] = second compound 10 µM, first compound 0.316 µM
[34] = second compound 10 µM, first compound 1 µM
[35] = second compound 10 µM, first compound 3.16 µM
[36] = second compound 10 µM, first compound 10 µM
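Further: spheroids exposed to compounds for seven days.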
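Wherever viability, T/C is given: 100% = DMSO vehicle control viability.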

C#Cc1c(F)ccc2cc(O)cc(-c3ncc4c(N5CC6CCC(C5)N6)nc(OCC56CCCN5CC(F)C6)nc4c3F)c12 (stereo unspecified) + COC1C(OC(N)=O)C(O)C(Oc2ccc3c(O)c(NC(=O)c4ccc(O)c(CC=C(C)C)c4)c(=O)oc3c2C)OC1(C)C
pIC50 (second compound 0.0316 µM): < 5.00
pIC50 (second compound 0.1 µM): < 5.00
pIC50 (second compound 0.316 µM): < 5.00
pIC50 (second compound 1 µM): < 5.00
pIC50 (second compound 3.16 µM): < 5.00
pIC50 (second compound 10 µM): < 5.00
viability, T/C [1]: 111%
viability, T/C [2]: 115%
viability, T/C [3]: 108%
viability, T/C [4]: 117%
viability, T/C [5]: 88.8%
viability, T/C [6]: 96.9%
viability, T/C [7]: 94.4%
viability, T/C [8]: 113%
viability, T/C [9]: 107%
viability, T/C [10]: 90%
viability, T/C [11]: 96.9%
viability, T/C [12]: 88.1%
viability, T/C [13]: 94%
viability, T/C [14]: 120%
viability, T/C [15]: 93.7%
viability, T/C [16]: 91.5%
viability, T/C [17]: 92.6%
viability, T/C [18]: 85.6%
viability, T/C [19]: 104%
viability, T/C [20]: 96.5%
viability, T/C [21]: 98.9%
viability, T/C [22]: 82.5%
viability, T/C [23]: 112%
viability, T/C [24]: 87.8%
viability, T/C [25]: 104%
viability, T/C [26]: 88.3%
viability, T/C [27]: 95.4%
viability, T/C [28]: 82.3%
viability, T/C [29]: 92.1%
viability, T/C [30]: 87.7%
viability, T/C [31]: 100%
viability, T/C [32]: 91.2%
viability, T/C [33]: 102%
viability, T/C [34]: 93.7%
viability, T/C [35]: 74.8%
viability, T/C [36]: 86.8%

COc1cc2cc(C(=O)CCC(=O)O)sc2cc1OC + Nc1ccc(C#CCN(C(=O)Cc2ncc(C(F)(F)F)cc2C(F)(F)F)c2ccc(F)cc2)nn1
pIC50 (second compound 0.0316 µM): < 5.00
pIC50 (second compound 0.1 µM): < 5.00
pIC50 (second compound 0.316 µM): < 5.00
pIC50 (second compound 1 µM): < 5.00
pIC50 (second compound 3.16 µM): < 5.00
pIC50 (second compound 10 µM): < 5.00
viability, T/C [1]: 92.5%
viability, T/C [2]: 94.8%
viability, T/C [3]: 115%
viability, T/C [4]: 102%
viability, T/C [5]: 92.2%
viability, T/C [6]: 95.2%
viability, T/C [7]: 112%
viability, T/C [8]: 105%
viability, T/C [9]: 81.5%
viability, T/C [10]: 102%
viability, T/C [11]: 94.5%
viability, T/C [12]: 125%
viability, T/C [13]: 103%
viability, T/C [14]: 95.3%
viability, T/C [15]: 89.9%
viability, T/C [16]: 87.3%
viability, T/C [17]: 102%
viability, T/C [18]: 79.9%
viability, T/C [19]: 103%
viability, T/C [20]: 84.5%
viability, T/C [21]: 94%
viability, T/C [22]: 104%
viability, T/C [23]: 107%
viability, T/C [24]: 97.3%
viability, T/C [25]: 109%
viability, T/C [26]: 112%
viability, T/C [27]: 103%
viability, T/C [28]: 112%
viability, T/C [29]: 100%
viability, T/C [30]: 90.1%
viability, T/C [31]: 126%
viability, T/C [32]: 116%
viability, T/C [33]: 123%
viability, T/C [34]: 107%
viability, T/C [35]: 117%
viability, T/C [36]: 104%

O=C(Nc1ccc(O)c(NS(=O)(=O)c2ccc(F)cc2)c1)c1ccc(-c2ccccc2)cc1 + COC1C(OC(N)=O)C(O)C(Oc2ccc3c(O)c(NC(=O)c4ccc(O)c(CC=C(C)C)c4)c(=O)oc3c2C)OC1(C)C
pIC50 (second compound 0.0316 µM): < 5.00
pIC50 (second compound 0.1 µM): < 5.00
pIC50 (second compound 0.316 µM): < 5.00
pIC50 (second compound 1 µM): < 5.00
pIC50 (second compound 3.16 µM): < 5.00
pIC50 (second compound 10 µM): < 5.00
viability, T/C [1]: 120%
viability, T/C [2]: 117%
viability, T/C [3]: 109%
viability, T/C [4]: 113%
viability, T/C [5]: 133%
viability, T/C [6]: 94.5%
viability, T/C [7]: 122%
viability, T/C [8]: 125%
viability, T/C [9]: 117%
viability, T/C [10]: 127%
viability, T/C [11]: 127%
viability, T/C [12]: 97%
viability, T/C [13]: 115%
viability, T/C [14]: 108%
viability, T/C [15]: 100%
viability, T/C [16]: 108%
viability, T/C [17]: 112%
viability, T/C [18]: 94.5%
viability, T/C [19]: 116%
viability, T/C [20]: 99.6%
viability, T/C [21]: 118%
viability, T/C [22]: 115%
viability, T/C [23]: 120%
viability, T/C [24]: 122%
viability, T/C [25]: 98.2%
viability, T/C [26]: 118%
viability, T/C [27]: 106%
viability, T/C [28]: 114%
viability, T/C [29]: 99.8%
viability, T/C [30]: 104%
viability, T/C [31]: 127%
viability, T/C [32]: 95.3%
viability, T/C [33]: 94.9%
viability, T/C [34]: 127%
viability, T/C [35]: 104%
viability, T/C [36]: 93.5%
